In data set [1] the test system is intracellular sphingolipids, CCRF-CEM cells. Nature of the data set: LC/MS/MS analysis of intracellular sphingolipids, CCRF-CEM. It counts as cell-based, human. The note with it: for increase in corresponding dihydroceramide over sphinganine plus GT-11 alone: fatty acid in addition to sphinganine plus GT-11, six hours, P<0.05. How it is done: LC/MS/MS analysis of intracellular sphingolipids. Sphingolipids were separated using an Agilent 1200 HPLC (LC) and determined by ESI/MS/MS performed on a AB SCIEX 4000 QTRAP Hybrid Triple Quadrupole/Linear Ion Trap mass spectrometer (MS), operating in a multiple reaction monitoring positive ionization mode as described previously with moderate modifications (25). Briefly, 50 μL of a solution (1 μM) of internal sphingolipid standards (including -sphingosine, -sphinganine, -sphingosine-1-phosphate, and -ceramide) was added to each cell pellet sample. Lipids of each sample were extracted twice with 2 mL of the ethyl acetate/isopropyl alcohol/water (60:28:12; v:v) solvent system. Supernatants were transferred to glass tubes (Kimble Chase) and evaporated under air (10 PSI) at 40° C. After reconstitution in methanol (4 mL), 1 ml of each sample was separated for the determination of lipid phosphate. Remaining sample (3 mL) was dried and used for sphingolipid quantification. For ESI/MS/MS, the dried lipid sample was dissolved in mobile phase A. Samples were injected (10 μL) and separated on a Spectra C8SR, 150×3.0 mm, 3-μm particle size column using gradient-elution (mobile phase A/B, prepared as previously described).
Data acquisition, peak integration and analyte quantitation were performed using ABI/SCIEX Analyst 1.4.2 Software. Sphingolipid data were normalized to lipid phosphate as previously described (26). Briefly, samples were dried under air (10 PSI) and lipids were extracted using the method of Bligh and Dyer (27). Of importance for phosphate assay, only Kimble Chase disposable borosilicate tubes were used for minimal sample contamination. Organic phase was transferred to glass tubes and a known volume was separated to a new tube and dried at 80° C. Phosphate standards and dried samples were then heated with ashing buffer (water:10 N:70% [40:9:1]) at 160° C. overnight. Samples were then incubated with ammonium molybdate and ascorbic acid as previously described, and absorbance ([…]) was read using a SpectraMax.
CCRF-CEM cells were treated with drug/fatty acid vehicles (control), GT-11 (0.5 μM) alone, sphinganine (4 μM) alone or sphinganine (4 μM) plus GT-11 (0.5 μM) for six hours and subsequently prepared for sphingolipid analysis.
CCRF-CEM cells were treated with GT-11 (0.5 μM) alone, sphinganine (1 μM) alone or sphinganine (1 μM) plus GT-11 (0.5 μM) for six hours and prepared for quantitative analysis. DHCers were normalized to control and plotted as fold change (bar, z-axis). * indicates significance, with P<0.05. […] CCRF-CEM cells were treated with sphinganine (1 μM) plus GT-11 (0.5 μM) with and without specific solubilized fatty acids (carbon chain length (CX) and saturation (:X), Ex: C20:1=fatty acid with 20 carbons and one desaturation) for six hours and prepared for quantitative sphingolipid analysis. Dihydroceramides were normalized to control cells that received sphinganine plus GT-11 with no fatty acid and plotted as fold change (bar, z-axis). * indicates significance, with P<0.05.

The subject of data set [2] is MOLT-4. The class given is cell-based, human. How it is done:
(§1) Statistical analyses. […] Propagated standard deviations were calculated using standard methods. Correlation analyses were performed using Sigmaplot 11 software.

Data set [3] concerns COG-LL-317. The class given is cell-based, human. Here is the method:
as §1

In data set [4] the test system is COG-LL-332. The class given is cell-based, human. Here is the method: as §1
Data set [5] has as its system CCRF-CEM. Here is the method: Statistical analyses. Descriptive statistics and significance testing were performed using Microsoft Excel. The Excel function “t.test” was used for Student's T-testing (two-tailed, type-2). Propagated standard deviations were calculated using standard methods. Correlation analyses were performed using Sigmaplot 11 software. […]
Due to the confounding effect of in vitro fatty acid conversion, correlation analyses were used to identify significant relationships between absolute levels of specific sphingolipids and cytotoxicity. […]

Molecules are shown by their SMILES.

On to `CCCCCCCCCCCCCCCCCCCC(=O)O` [C20:0-fatty acid], for which the “increase in C22:0-DHCer over sphinganine plus GT-11 alone” value in data set [1] (fatty acid 5 μM in addition to sphinganine 1 μM plus GT-11 0.5 μM, six hours, P<0.001) stood at 12 fold. In addition, the “increase in corresponding dihydroceramide over sphinganine plus GT-11 alone” value in data set [1] is reported as “significant increases”.
In the case of `CCCCCCCCCCCCCC(=O)O` [C14:0-fatty acid], the “increase in corresponding dihydroceramide over sphinganine plus GT-11 alone” value in data set [1] is recorded as “significant increases”.
For the compound `CCCCCCCCC=CCCCCCCCCCCCC(=O)NC(CO)C(O)CCCCCCCCCCCCCCC` (centres unmarked) [C22:1-DHCer], the “Pearson Coef. (r), sphingolipid level vs cytotoxicity” value (shortened to “Pearson Coef. (r) … vs cytotoxicity”) in data set [2] is −2.5 × 10^−3; in data set [3] it was −0.28; in data set [5], −0.13. Further, the figures for the “Spearman Coef. (ρ), sphingolipid level vs cytotoxicity” value (“Spearman Coef. (ρ) … vs cytotoxicity” for short) in data set [2], in data set [3] and in data set [5] were 0.24, −0.26 and 0.22, respectively. The “Pearson Coefficient (r), sphingolipid level vs cytotoxicity” value (“Pearson Coefficient (r) … vs cytotoxicity” for short) in data set [4] is 0.07. The “Spearman Coefficient (ρ), sphingolipid level vs cytotoxicity” value (“Spearman Coefficient (ρ) … vs cytotoxicity” for short) in data set [4] is given as 0.62.
Regarding `CCCCCCCC/C=C\CCCCCCCCCCCCCC(=O)N[C@@H](CO)[C@H](O)CCCCCCCCCCCCCCC` [C24:1-DHCer], in data set [2], the “Pearson Coef. (r) … vs cytotoxicity” value is listed as −0.04 and the “Spearman Coef. (ρ) … vs cytotoxicity” value is recorded as 0.12. Also, in data set [3], the “Pearson Coef. (r) … vs cytotoxicity” value is recorded as −0.29 and the “Spearman Coef. (ρ) … vs cytotoxicity” value is −0.21. Further, in data set [4], the “Pearson Coefficient (r) … vs cytotoxicity” value is 0.14 and the “Spearman Coefficient (ρ) … vs cytotoxicity” value turned out to be 0.45. In data set [5], the “Pearson Coef. (r) … vs cytotoxicity” value was −0.17 and the “Spearman Coef. (ρ) … vs cytotoxicity” value is reported as −0.07.
`CCCCCCCC/C=C\CCCCCCCCCCCCCC(=O)O` [C24:1-fatty acid]: in data set [1], the “increase in corresponding dihydroceramide over sphinganine plus GT-11 alone” value is “significant increases”.
As to `CCCCCCCCC=CCCCCCCCCCCCC(=O)NC(CO)C(O)C=CCCCCCCCCCCCCC` (centres unmarked) [C22:1-Cer], the “Pearson Coef. (r) … vs cytotoxicity” value is −0.32 in data set [2], −0.28 in data set [3] and −0.23 in data set [5]. Further, the “Spearman Coef. (ρ) … vs cytotoxicity” value in data set [2] is on record as −0.48; in data set [3], −0.60; in data set [5], −0.24. The “Pearson Coefficient (r) … vs cytotoxicity” value in data set [4] was −0.14. The “Spearman Coefficient (ρ) … vs cytotoxicity” value in data set [4] was −0.26.
In the case of `CCCCCCCCCCCCCCCC(=O)O` [C16:0-fatty acid], the “increase in corresponding dihydroceramide over sphinganine plus GT-11 alone” value in data set [1] is “significant increases”.
`CCCCCCCCCCCCCCCCCC(=O)N[C@@H](CO)[C@H](O)CCCCCCCCCCCCCCC` [C18:0-DHCer]: in data set [2], the “Pearson Coef. (r) … vs cytotoxicity” value is on record as 0.12 and the “Spearman Coef. (ρ) … vs cytotoxicity” value was 0.14. In addition, in data set [3], the “Pearson Coef. (r) … vs cytotoxicity” value was −0.22 and the “Spearman Coef. (ρ) … vs cytotoxicity” value is −0.38. In data set [4], the “Pearson Coefficient (r) … vs cytotoxicity” value is given as −0.16 and the “Spearman Coefficient (ρ) … vs cytotoxicity” value is recorded as −0.16. Also, in data set [5], the “Pearson Coef. (r) … vs cytotoxicity” value is recorded as 0.22 and the “Spearman Coef. (ρ) … vs cytotoxicity” value amounted to 0.15.
Consider `CCCCCCCC/C=C\CCCCCCCCCCCCCC(=O)N[C@@H](CO)[C@H](O)/C=C/CCCCCCCCCCCCC` [C24:1-Cer], for which, in data set [2], the “Pearson Coef. (r) … vs cytotoxicity” value was −0.43 and the “Spearman Coef. (ρ) … vs cytotoxicity” value was −0.55. Further, in data set [3], the “Pearson Coef. (r) … vs cytotoxicity” value is −0.42 and the “Spearman Coef. (ρ) … vs cytotoxicity” value is recorded as −0.74. Moreover, in data set [4], the “Pearson Coefficient (r) … vs cytotoxicity” value was −0.07 and the “Spearman Coefficient (ρ) … vs cytotoxicity” value turned out to be 0.05. In data set [5], the “Pearson Coef. (r) … vs cytotoxicity” value is given as −0.27 and the “Spearman Coef. (ρ) … vs cytotoxicity” value is −0.32.
`CCCCCCCCCCCCCCC[C@@H](O)[C@@H](N)CO` [Sphinganine, (2S,3R)-2-aminooctadecane-1,3-diol, reference compound]: in data set [5], the “Pearson Coef. (r) … vs cytotoxicity” value was −0.21 and the “Spearman Coef. (ρ) … vs cytotoxicity” value is −0.30. The “increase of total ceramide” value in data set [1] (sphinganine 4 μM alone, six hours, normalized to control, P<0.001) is listed as 1.5 fold.
In the case of `CCCCCCCCCCCCCCCC(=O)N[C@@H](CO)[C@H](O)CCCCCCCCCCCCCCC` [C16:0-DHCer], in data set [2], the “Pearson Coef. (r) … vs cytotoxicity” value was determined as 0.26 and the “Spearman Coef. (ρ) … vs cytotoxicity” value was 0.57. In data set [3], the “Pearson Coef. (r) … vs cytotoxicity” value stood at 0.03 and the “Spearman Coef. (ρ) … vs cytotoxicity” value worked out at 0. Further, in data set [4], the “Pearson Coefficient (r) … vs cytotoxicity” value is given as 0.45 and the “Spearman Coefficient (ρ) … vs cytotoxicity” value is 0.62. Moreover, in data set [5], the “Pearson Coef. (r) … vs cytotoxicity” value was found to be 0.26 and the “Spearman Coef. (ρ) … vs cytotoxicity” value worked out at 0.37.

Values taken from patent US20120121691A1, “Method for Increasing the Production of a Specific ACYL-Chain Dihydroceramide(s) for Improving the Effectiveness of Cancer Treatments” (priority 2010, published 2012).
